Results reported in paper PMC8155809 (The Journal of General Physiology, 2021).

Legend:
human TREK-2 = biological target: T1, human TREK-2 (Homo sapiens, UniProt P57789); assay: Macroscopic TREK-2 currents in giant excised patches from Xenopus oocytes; type: cell-based
T1 construct: expressed in transfected cells; host or cells: Xenopus laevis oocytes injected with in vitro transcribed mRNA (pFAW vector)
T1 sequence (P57789 1-543 isoform P57789-4): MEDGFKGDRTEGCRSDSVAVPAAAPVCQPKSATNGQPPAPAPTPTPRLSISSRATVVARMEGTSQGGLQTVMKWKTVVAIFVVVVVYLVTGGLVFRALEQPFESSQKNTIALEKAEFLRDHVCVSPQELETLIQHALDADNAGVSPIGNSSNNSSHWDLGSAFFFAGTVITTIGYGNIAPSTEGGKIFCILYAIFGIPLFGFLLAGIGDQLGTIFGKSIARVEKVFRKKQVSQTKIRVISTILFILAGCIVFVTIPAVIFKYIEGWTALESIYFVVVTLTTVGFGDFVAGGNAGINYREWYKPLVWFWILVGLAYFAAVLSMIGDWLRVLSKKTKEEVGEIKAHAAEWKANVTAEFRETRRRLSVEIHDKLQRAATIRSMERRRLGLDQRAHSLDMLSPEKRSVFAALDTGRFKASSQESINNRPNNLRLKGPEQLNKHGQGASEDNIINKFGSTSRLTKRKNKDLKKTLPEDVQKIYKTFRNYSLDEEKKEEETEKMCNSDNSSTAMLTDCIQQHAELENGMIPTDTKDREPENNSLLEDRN
Method: (§1) Full-length human TREK-2 isoform 3 (NCBI accession no. NP_612191) was used throughout this study and was subcloned into the pFAW vector for expression in oocytes. The truncated construct used to generate protein (TREK-2ΔN/ΔC) is identical to that used previously to obtain crystal structures ([Dong et al., 2015]); it contains a deletion of 71 residues at the N terminus and 213 residues at the C terminus. […] Desamino chloro-fluoxetine (Toronto Research Chemicals) was dissolved in chloroform and diluted to working concentrations on the day of experimenting (maximum final concentration was 0.01%).
Oocytes were prepared for injection of mRNA by collagenase digestion followed by manual defolliculation and stored in ND96 solution that contained (in mM) 96 NaCl, 2 KCl, 1.8 CaCl2, 1 MgCl2, and 10 HEPES (pH 7.4) and was supplemented with 2.5 mM sodium pyruvate 50 µg/ml gentamycin, 50 µg/ml tetracycline, 50 µg/ml ciprofloxacin, and 100 µg/ml amikacin. Cells were injected with 1–4 ng mRNA up to 4 d after isolation. In vitro transcription of mRNA was done using the Amplicap SP6 Kit (Cambio). Experiments were performed 12–24 h after injection at room temperature (22°C unless otherwise indicated). For measurement and comparison of basal whole-cell currents, oocytes were injected with 4 ng RNA and recorded exactly 24 h after injection.
(§2) For currents recorded in Xenopus laevis oocytes, giant-patch electrodes were pulled from thick-walled borosilicate glass and polished to give pipette resistances of ∼0.3–0.5 MΩ when filled with patch solution. Pipette solution contained (in mM) 116 NMDG, 4 KCl, 1 MgCl2, 3.6 CaCl2, and 10 HEPES (pH 7.4), while the bath solution contained (in mM) 120 KCl, 1 NaCl, 2 EGTA, and 10 HEPES (pH 7.3). Patches were perfused via a gravity-flow perfusion system and a HEKA EPC 10 USB single computer–controlled amplifier was used and currents recorded using a Patchmaster v2 × 90.5 (HEKA Electronics), filtered at 1 kHz, and sampled at 10 kHz. For currents recorded in HEK293 cells, patch electrodes were pulled from thick-walled borosilicate glass and polished to give pipette resistances of ∼3–5 MΩ when filled with patch solution. The currents were recorded from excised patches with both intracellular and extracellular solution containing 200 mM KCl and 10 mM HEPES (pH 6.0 with KOH). Patches were perfused via a gravity-flow perfusion system. Data were acquired with pClamp and recorded using an Axopatch 200B (Molecular Devices), filtered at 5 kHz, and sampled at 200 kHz. Single-channel currents were analyzed in an identical manner to those obtained from bilayers (see above).
The macroscopic concentration–inhibition relationships in Figs. 1 and 2 were fitted with a modified Hill equation:
I/I0=a+1−a/1+([X]/IC50)^h, (1) where I and IO are the currents in the presence and absence of inhibitor, respectively, [X] is the concentration of inhibitor, IC50 is the inhibitor concentration at which the inhibition is half maximal, h is the Hill coefficient, and a is the fraction of unblockable current; a = 0, except where indicated in the legend to Fig. 1.
The macroscopic concentration–activation relationships in Fig. 1 E were fitted with a modified Hill equation: I/I0=a+(1−a)([X]/IC50)^h/1+([X]/IC50)^h, (2) where I and IO are the currents in the presence and absence of agonist, respectively, [X] is the concentration of agonist, IC50 is the agonist concentration at which the activation is half maximal, h is the Hill coefficient, and a is the fraction of initial current.

WT TREK-2 = biological target: T2, WT TREK-2 (Homo sapiens, UniProt P57789); assay: Single-channel recordings of WT TREK-2 in excised patches from HEK293 cells; type: cell-based
T2 construct: full-length WT TREK-2 channels, we examined its effects on the mean open time of TREK-2 channels expressed in HEK293 cells; expressed in transfected cells; host or cells: HEK293 cells, transient transfection with pcDNA3
T2 sequence (P57789 1-543 isoform P57789-4): T1 sequence (P57789 1-543 isoform P57789-4)
Method: as §1
HEK293 cells were cultured in DMEM (Sigma) containing 10% FBS (Life Technologies), 3 mM glucose, and 2 mM glutamine at 37°C in a humidified atmosphere of 5% CO2/[…] at 37°C. Cells were transiently transfected with 0.2 µg channel pcDNA3 per dish using FuGENE 6 according to the manufacturer’s instructions. Cells were used 1–2 d after transfection.
as §2

## c1ccc(-c2nn[nH]n2)c(Nc2cccc3c2CCCC3)c1 [BL1249]
Human TREK-2; BL1249 on its own
  h (Hill coefficient), BL1249 activation: 1.9
Human TREK-2; in the presence of NFx
  h (Hill coefficient), BL1249 activation: 1.4

## CS(=O)(=O)Nc1ccc(C(=O)NCc2ccc(Cl)cc2Cl)cc1 [ML335]
WT TREK-2; 100 µM ML335, absence of NFx, −40 mV
  mean Po: 0.69 ± 0.2

## FC(F)(F)c1ccc(O[C@@H](CCCl)c2ccccc2)cc1 [desamino chloro-fluoxetine, Desamino chloro-fluoxetine]
WT TREK-2; 10 µM, −40 mV
  PO (single-channel open probability): 0.04
WT TREK-2; 10 µM, −40 mV (Fig. 6B)
  reduction in γ (single-channel current amplitude): 15 ± 5%
  reduction of channel Po: 75 ± 0.05%
